Measurements from patent US20240148672A1, “ORAL THIN FILM” (LTS LOHMANN THERAPIE-SYSTEME AG, priority 2021, published 2024).
Where a name gives a salt, the structure may show the parent alone.

Tests used:
[1] = (S)-ketamine versus (R) form; cited from earlier work
[2] = pH value of oral thin film dissolved in demineralised water; format: physicochemical; settings: Measured as dissolved OTF in demineralised water temperature-controlled to 32° C. (blank value pH 7.12)
Experimental: Oral thin films of the composition according to Table 1 were prepared as follows. The active ingredient or the active ingredient mixture was presented and an aqueous solution of the matrix polymer was added. The remaining ingredients were then stirred in. The solution was spread and dried in order to obtain an oral thin film.

Structure (SMILES) | analgesic and anaesthetic potency relative to the (R) form [1] | pH-value [2]
CNC1(c2ccccc2Cl)CCCCC1=O (racemic) [(S)-ketamine, (S)-(±)-2-(2-chlorophenyl)-2-(methylamino)cyclohexan-1-one] | approximately three times higher | 
CNC1(c2ccccc2Cl)CCCCC1=O (centres unmarked) [ketamine hydrochloride] |  | 5.32
